Reference: patent US7534811B2, “Cyclic onium compounds and glucosidase inhibitors” (Kinki University, priority 2003, dated 2009)

What was measured:
[1] = target: small intestinal α-glucosidase (maltase); assay: Concentration for 50% inhibition, small intestinal α-glucosidase, maltose substrate; assay type: biochemical; settings: rat intestinal brush border membrane vesicles; substrate maltose (74 mM); pH6.0; 37° C., 30 minutes
Procedure: (§1) Rat intestinal brush border membrane vesicles were prepared, and a suspension in a 0.1M maleic acid salt buffer solution (pH6.0) was used as small intestinal α-glucosidase (maltase and saccharase).
(§2) 0.05 ml of sample compound solutions of differing concentration were added, respectively, to 0.1 ml of a substrate solution of sucrose (74 mM) and maltose (74 mM), and the solution was preheated at 37° C. for 2 to 3 minutes. 0.05 ml of an enzymatic solution was added thereto and the solution was allowed to incubate for 30 minutes. After incubation, 0.8 ml of water was added thereto and the solution was heated in a boiling water bath for 2 minutes to deactivate the enzyme. Blank was prepared as follows. After the enzymatic solution was added to each sample, water was immediately added, and the resulting mixture was heated in a boiling water bath for 2 minutes to deactivate the enzyme. The amount of d-glucose formed therein was measured using a glucose oxidase method. The substrate and test samples were dissolved in a 0.1M maleic acid buffer solution (pH6.0). The concentrations for 50% inhibition (IC50) were calculated based on the values obtained.

[2] = target: T1, small intestinal α-glucosidase (saccharase) (Rattus norvegicus, UniProt P23739); assay: Concentration for 50% inhibition, small intestinal α-glucosidase, sucrose substrate; assay type: biochemical; settings: rat intestinal brush border membrane vesicles; substrate sucrose (74 mM); pH6.0; 37° C., 30 minutes; read-out: IC50 (μg/ml) Sucrose (converted)
T1 construct: Rat intestinal brush border membrane vesicles were prepared; from tissue; host or cells: rat small intestine, brush border membrane vesicles
Procedure: as §1, §2

T1 sequence (P23739 whole entry): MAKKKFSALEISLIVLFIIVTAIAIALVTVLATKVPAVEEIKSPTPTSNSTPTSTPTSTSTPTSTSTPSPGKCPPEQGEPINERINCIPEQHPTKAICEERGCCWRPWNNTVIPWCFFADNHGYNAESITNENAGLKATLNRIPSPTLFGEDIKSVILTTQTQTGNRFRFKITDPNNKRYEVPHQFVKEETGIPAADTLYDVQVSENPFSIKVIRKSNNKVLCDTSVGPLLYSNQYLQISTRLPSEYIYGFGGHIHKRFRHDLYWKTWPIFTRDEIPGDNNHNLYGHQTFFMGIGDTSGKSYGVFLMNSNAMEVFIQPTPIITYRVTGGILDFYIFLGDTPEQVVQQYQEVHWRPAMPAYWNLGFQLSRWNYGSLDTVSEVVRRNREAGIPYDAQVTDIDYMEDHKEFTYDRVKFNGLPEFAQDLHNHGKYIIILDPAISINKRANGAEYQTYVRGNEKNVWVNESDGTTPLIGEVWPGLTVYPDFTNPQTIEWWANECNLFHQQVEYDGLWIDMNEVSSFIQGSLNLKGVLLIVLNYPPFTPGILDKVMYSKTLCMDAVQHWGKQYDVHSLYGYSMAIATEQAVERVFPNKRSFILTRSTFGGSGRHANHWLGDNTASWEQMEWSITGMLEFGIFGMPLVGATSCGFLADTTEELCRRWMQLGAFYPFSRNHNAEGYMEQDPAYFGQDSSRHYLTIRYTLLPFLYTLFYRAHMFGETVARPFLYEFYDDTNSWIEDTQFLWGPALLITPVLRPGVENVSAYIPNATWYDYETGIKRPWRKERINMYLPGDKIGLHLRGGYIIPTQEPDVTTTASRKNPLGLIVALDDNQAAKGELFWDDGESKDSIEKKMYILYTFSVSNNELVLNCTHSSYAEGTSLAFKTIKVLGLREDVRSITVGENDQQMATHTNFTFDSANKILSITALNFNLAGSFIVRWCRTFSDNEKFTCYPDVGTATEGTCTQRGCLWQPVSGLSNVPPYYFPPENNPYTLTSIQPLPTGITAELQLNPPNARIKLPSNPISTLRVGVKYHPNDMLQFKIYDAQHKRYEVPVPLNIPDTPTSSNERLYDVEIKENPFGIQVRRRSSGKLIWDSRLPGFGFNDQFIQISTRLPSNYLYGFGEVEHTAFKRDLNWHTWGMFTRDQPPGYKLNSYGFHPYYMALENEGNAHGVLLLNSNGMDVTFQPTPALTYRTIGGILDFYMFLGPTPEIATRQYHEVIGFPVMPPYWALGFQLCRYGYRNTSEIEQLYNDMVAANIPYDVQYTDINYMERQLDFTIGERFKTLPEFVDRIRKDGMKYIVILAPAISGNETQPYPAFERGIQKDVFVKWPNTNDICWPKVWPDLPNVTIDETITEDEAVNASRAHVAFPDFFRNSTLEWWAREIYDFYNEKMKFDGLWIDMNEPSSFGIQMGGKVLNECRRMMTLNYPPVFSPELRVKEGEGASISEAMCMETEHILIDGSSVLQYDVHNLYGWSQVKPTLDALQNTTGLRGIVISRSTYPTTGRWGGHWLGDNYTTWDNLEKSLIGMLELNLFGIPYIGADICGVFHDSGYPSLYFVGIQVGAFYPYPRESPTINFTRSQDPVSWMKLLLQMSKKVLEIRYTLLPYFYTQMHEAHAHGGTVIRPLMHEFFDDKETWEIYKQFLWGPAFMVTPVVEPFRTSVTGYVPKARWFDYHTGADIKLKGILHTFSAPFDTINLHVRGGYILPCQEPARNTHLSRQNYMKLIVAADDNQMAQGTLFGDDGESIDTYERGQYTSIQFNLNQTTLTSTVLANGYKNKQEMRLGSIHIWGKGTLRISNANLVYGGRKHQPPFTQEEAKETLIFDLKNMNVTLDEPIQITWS

Structure (SMILES)	IC50 (μg/ml) Maltose [1] [µg/mL]	IC50 [2] [µM]
OC[C@@H]1[C@@H](O)[C@H](O)C[S@@+]1C[C@@H](O)[C@@H](O)CO [Compound 1]	5.71	5.29
C[S+]1C[C@H](O)[C@@H](O)[C@@H]1CO (stereo partly shown) [Compound 2]	79.3	339
